Source: BigSolDB 2.1

O=c1[nH]cc(F)c(=O)[nH]1
solubility (mole fraction)
Details | 293.15 K | 298.15 K | 303.15 K | 308.15 K | 313.15 K | 318.15 K | 323.15 K
in ethanol | 0.00246 | 0.00277 | 0.00307 | 0.0034 | 0.00382 | 0.00411 | 0.00455
in water | 0.00155 | 0.00176 | 0.00195 | 0.00214 | 0.00241 | 0.00278 | 0.00312
